Where a name gives a salt, the structure may show the parent alone.
Columns and labels:
mice = test: Acute toxicity; format: in vivo; settings: oral
immunitary systems = test: Test of Rosettes to sheep red corpuscles; format: in vivo; settings: Rattus norvegicus, Splenocyte; 3 month old male rats, oral daily from day -1 to day 1; splenocytes after 7 days; read-out: immunostimulating dose (dose which multiplies by 2 the percentage of rosettes observed in the control animals)
Protocol: The administration to animals of a product capable of stimulating the immunitary systems leads to an increase of their capacity of reaction to the injection of a immunogenic product. 3 month old male rats were sensitized by intraperitoneal administration of sheep erythrocytoes on day 0 and 7 days later, the spleen was removed and splenocytes were placed in contact with sheep erythrocytes. The percentage of leucocytes around which the erythrocytes were in the form of rosettes was determined. The test compounds were orally administered daily from day-1 to day 1 and immunostimulating dose is the dose of product which multiplies by 2 the percentage of rosettes observed in the control animals.

| Structure (SMILES) | LD0 (maximum dose which did not cause any mortality after 8 days) (mice) | ED (2-fold rosettes) (immunitary systems) |
| --- | --- | --- |
| C[C@H](O)[C@H]1CC[C@H]2[C@@H]3CC=C4C[C@H](NC(=O)CN)CC[C@]4(C)[C@H]3CC[C@]12C.Cl [Example 6, 2-amino-N-[(20S) 20-hydroxy-pregn-5-ene-3α-yl]-acetamide hydrochloride] | > 400 mg/kg |  |
| CC(=O)[C@H]1CC[C@H]2[C@@H]3CC=C4C[C@H](NC(=O)CN)CC[C@]4(C)[C@H]3CC[C@]12C [Example 4, 2-amino N-(20 oxopregn-5-ene 3α-yl) acetamide hydrochloride] | 600 mg/kg | 5 mg/kg |
| CC(=O)[C@H]1CC[C@H]2[C@@H]3CC=C4C[C@H](NC(=O)[C@H](C)N)CC[C@]4(C)[C@H]3CC[C@]12C [Example 3, (2S)-2-amino-N-(20-oxopregn-5-ene 3α-yl)propionamide hydrochloride] | > 400 mg/kg | 2 mg/kg |
